According to patent US8673289B2, “Attenuated uracil auxotroph of an apicomplexan and use thereof” (priority 2007, dated 2014):

Columns and labels:
cps1-1 and cps2-1 = assay: pyrimidine rescue of cps1-1 and cps2-1 replication and plaque formation; type: cell-based, Toxoplasma gondii; conditions: for rescue of replication (doublings) of cps1-1 and cps2-1: 36-hour replication assay, HFF; for rescue of plaque formation of cps1-1 and cps2-1: plaque assay
Experimental: No pyrimidine compound at less than 25 μM could rescue plaque formation of cps1-1 or cps2-1. […] Uridine was quite poor at rescue of plaque formation in cps1-1 and cps2-1.
A more detailed growth response to pyrimidine, measured as parasite replications (doublings) was performed for cps1-1 and cps2-1 and compared to the results previously obtained for […]. […] Uridine rescue was poor, with a slow restoration of growth at very high amounts, >400 μM. Deoxyuridine rescue was significant, but again, full growth rate was not restored at any concentration of deoxyuridine. Rescue with uracil was robust, but only in a limited range of concentration. Full restoration of growth rate in cps1-1 and cps2-1 was possible only with uracil added between 200 and 400 μM. […] This phenotype can only be observed in T. gondii pyrimidine auxotroph mutants, not in wild-type parasites with intact de novo pyrimidine synthesis pathways.
The pyrimidine growth dependence of mutant cps1-1 on the pyrimidine salvage pathway was further documented in thymidine interference experiments. Mutant cps1-1 plaques well in 250 μM uracil or deoxyuridine, but not in 1000 μM thymidine. Since thymidine at 1000 μM is known to inhibit approximately 90% of the parasite nucleoside phosphorylase activity specific for cleavage of deoxyuridine (Iltzsch, (1993) J. Euk. Micro. 40:24-28), growth of cps1-1 was tested in combinations of 1000 μM thymidine and 250 μM uracil or 250 μM deoxyuridine. All pyrimidine salvage in T. gondii must pass through uracil and UPRT conversion of uracil to UMP. In contrast, thymidine has no effect on UPRT activity. Thus, if growth of cps1-1 were dependent on deoxyuridine supplementation then replication in this condition may be inhibited by co-supplementing with 1000 μM thymidine. […] Thus, when cps1-1 is grown in deoxyuridine the parasite strictly requires nucleoside phosphorylase activity to cleave deoxyuridine for growth. […] Thus, cps1-1 and cps2-1 rely strictly on pyrimidine salvage enzymes for growth and further, the HFF host cell in vitro cannot supply sufficient pyrimidines for growth of cps1-1 or cps2-1. […] Such potential inhibitors can only be identified using a pyrimidine auxotroph such as provided in the instant invention.
To assess reversion, 10^6 to 10^7 cps1-1 or cps2-1 parasites were periodically inoculated into HFF flasks supplemented with 5 μM uridine. This concentration of uridine is sufficient to rescue the parent strains (cps1 and cps2) of cps1-1 and cps2-1.

cps1 and cps2 mutants = assay: pyrimidine dependence of cps1 and cps2 replication and plaque formation; type: cell-based, Toxoplasma gondii; conditions: for rescue of growth rate / replication of cps1 and cps2: relatively low (thymine, thymidine: moderate) concentrations in medium; for rescue of replication of cps1 and cps2: very high concentrations
From the text: However, all of these mutants are somewhat “leaky” in that there was not an absolute growth (replication) dependence on uracil addition to the growth medium for replication. Each of these mutants grows at a moderate (½ of normal) growth rate for the first 2 days following infection of a host cell producing vacuoles that contained 16 to 32 parasites by 3 days post infection. In contrast, RH parasites are lysed out of their primary vacuoles at this time (3 days, >64 parasites). However, the cps mutants slow after 3 days and many parasites never (about ⅓) break out of their primary vacuole. If the primary vacuole breaks, a few parasites can be detected at the site of infection but the infection site always involves a small zone of infection that never forms a visible plaque in a standard 7 day plaque assay. To quantitate growth of these mutants, HFF flasks were inoculated with […] or cps2 parasites (about a multiplicity of infection (MOI) of 1 parasite per 20 HFF cells). After 2 hours of attachment and invasion (all of these mutants have normal attachment and invasion phenotypes as scored by counting percent entered parasites into host cells as a function of time post-inoculation), different concentrations of different pyrimidine compound was added to parallel infected HFF flasks. As a function of time post pyrimidine addition (t=0 hour) the number of parasites per vacuole was scored for 50 vacuoles as described by Fox et al. ((1999) supra). The number of parasite doublings was calculated based on 1 parasite entering each primary vacuole. Thus, 1 doubling=2 parasites per vacuole, 3 doublings=8 parasites per vacuole, and 5 doublings=32 parasites per vacuole. The pyrimidine dependence of cps1 and cps2 replication (doublings of parasites in the vacuole) was plotted graphically. […] The response to thymine and thymidine was additionally informative about the cause of the growth defect in cps1 and cps2. […] This is believed to be caused by the putative defect in the cps1 and cps2 mutants which is a reduced “pool” size of UMP. If UMP pools (ultimately used for RNA and DNA synthesis) are lowered it follows that a resulting decrease in TMP pools is expected since UMP is the precursor of TMP in T. gondii and all other apicomplexan parasites which normally lack TK activity. However, since cps1 and cps2 now express a TK activity carried into the parasite by the p53KOX3-1R plasmid, exemplified by sensitivity of these mutants to ganciclovir (specific to HSV TK), feeding parasites either thymine or thymidine is expected to increase TMP pools. Thus, it appears that moderate levels of thymine or thymidine partially rescue growth of cps1 and cps2 by restoring TMP pools. […] Since the parasite has no mechanism to convert TMP back to UMP there is still a defect in the UMP pool in cps1 and cps2 even with added thymine or thymidine and rescue is never complete. The ability of cps1 and cps2 mutants to form plaques on HFF monolayers in the standard 7 day assay paralleled the pyrimidine dependence of parasite replication in vacuoles.
The cps1 and cps2 mutants were inoculated intraperitoneally (i.p.) into balb/c mice to measure parasite virulence compared to virulent RH parasites. Both mutant cps1 and cps2 had equal virulence as RH parasites in balb/c mice (Jackson Labs), killing all mice within 10 days of i.p. inoculation (group size was four mice per parasite strain). Only 100 parasites (˜50 PFU) of each parasite strain was needed to kill all mice in each group. This pattern of virulence can be understood by re-examining the pyrimidine dependence of cps1 and cps2 growth. Uridine is believed to be the pyrimidine responsible for virulence of cps1 and cps2 in mice. Only 5 μM uridine completely rescues normal plaque size of cps1 and cps2 in vitro. Plasma concentrations of uridine in mice are approximately 5 to 10 μM.

wild-type T. gondii = assay: labeling of parasites with [3H]pyrimidines (pyrimidine salvage); type: cell-based, Toxoplasma gondii; conditions: parasites grown in host cells
Experimental: (§1) Initial experiments primarily involved an enzymatic analysis of drug resistant mutants and the incorporation of various pyrimidine analogs into T. gondii RNA and DNA as an indication of pyrimidine salvage when parasites were grown in either normal host or mutant host cells. All biochemical communications between the parasite and host cells cross the vacuolar membrane which is now known to contain “pores” that permit the passage of nucleobases ranging in molecular mass from 112 daltons up to 244 daltons. The size of the pores is estimated to be approximately 1500 daltons. A T. gondii mutant resistant to 5-fluorodeoxyuridine (FUDR-1) had lost uracil phosphoribosyltransferase (UPRT), an enzyme which is absent in normal host cells (Pfefferkorn (1978) Expt. Parasitol. 44:26-35). […] FUDR-1 mutant parasites were not labeled with [^3H]deoxyuridine. […] FUDR-1 mutant parasites were not labeled with [^3H]uridine. […] FUDR-1 (UPRT knock-out) parasites were not labeled with [^3H]uracil.
Similarly, since uracil only labels the parasite, due to the parasite UPRT, which is absent in the host, the pyrimidine pools of the parasite are also unavailable to the host. Thus, there is no detectable pyrimidine traffic detected between the parasite and host.

FUDR-1 mutant parasites = assay: labeling of FUDR-1 (UPRT knock-out) parasites with [3H]pyrimidines; type: cell-based, Toxoplasma gondii
Experimental: as §1

[1] = test system: parasite nucleoside phosphorylase activity specific for cleavage of deoxyuridine; conditions: thymidine at 1000 μM; cited from earlier work
mammalian CPSII = conditions: hamster CPSII; cited from earlier work

| Compound | rescue of replication (doublings) of cps1-1 and cps2-1 (cps1-1 and cps2-1) | rescue of growth rate / replication of cps1 and cps2 (cps1 and cps2 mutants) | incorporation of [3H]-labeled pyrimidine into wild-type parasites (wild-type T. gondii) | rescue of plaque formation of cps1-1 and cps2-1 (cps1-1 and cps2-1) | further results |
| --- | --- | --- | --- | --- | --- |
| Nc1ccn([C@@H]2O[C@H](CO)[C@@H](O)[C@H]2O)c(=O)n1 [cytidine] | remained as a single non-replicated parasite | completely rescued | did not incorporate |  |  |
| Nc1cc[nH]c(=O)n1 [cytosine] | remained as a single non-replicated parasite | did not rescue at all | did not incorporate |  |  |
| O=c1ccn([C@H]2C[C@H](O)[C@@H](CO)O2)c(=O)[nH]1 [deoxyuridine] | significant | completely rescued | incorporated into wild-type T. gondii | significant growth rescue | plaque formation of cps1-1 (cps1-1 and cps2-1; 250 μM supplement): plaques well; labeling of FUDR-1 mutant parasites with [3H]pyrimidine (FUDR-1 mutant parasites): not labeled |
| Cc1cn([C@H]2C[C@H](O)[C@@H](CO)O2)c(=O)[nH]c1=O [thymidine] | remained as a single non-replicated parasite | partially rescued | did not incorporate | no response was detected | inhibition of parasite nucleoside phosphorylase activity [1]: approximately 90%; plaque formation of cps1-1 (cps1-1 and cps2-1; 1000 μM thymidine): not; effect on deoxyuridine-dependent growth of cps1-1 (cps1-1 and cps2-1; 1000 μM thymidine plus 250 μM deoxyuridine): did block; effect on UPRT or uracil dependent growth of cps1-1 (cps1-1 and cps2-1; 1000 μM thymidine plus 250 μM uracil): did not affect; rescue of replication of cps1 and cps2 (cps1 and cps2 mutants): did not rescue replication |
| Cc1c[nH]c(=O)[nH]c1=O [thymine] | remained as a single non-replicated parasite | partially rescued | did not incorporate | no response was detected | rescue of replication of cps1 and cps2 (cps1 and cps2 mutants): did not rescue replication |
| O=c1ccn([C@@H]2O[C@H](CO)[C@@H](O)[C@H]2O)c(=O)[nH]1 [uridine] | poor | completely rescued | incorporated into wild-type parasites | quite poor | support of growth of cps1-1 or cps2-1 (cps1-1 and cps2-1; 5 μM uridine): insufficient to support any growth; uridine concentration giving slow restoration of growth (cps1-1 and cps2-1; cps1-1, cps2-1): > 400 µM; uridine concentration that rescues cps1 and cps2 (normal plaque size) (cps1 and cps2 mutants; in vitro): 5 µM; labeling of FUDR-1 mutant parasites with [3H]pyrimidine (FUDR-1 mutant parasites): not labeled |
| H. a. S1345A: hamster CPSII with regulatory domain serine to alanine mutation |  |  |  |  | Effect on CPS or CPSII (mammalian CPSII): Reduces PRPP activation |
| H. a. T456A: mammalian (hamster) CPSII with MAPK site mutation T456A |  |  |  |  | Effect on CPS or CPSII (mammalian CPSII): Abolishes MAPK activation |
